Assay results published in patent US20260049061A1, “SMALL MOLECULES AS KCNQ2/3 (KV7.2/3) CHANNEL ACTIVATORS AND THEIR MEDICAL USE THEREOF” (Humanwell Pharmaceutical US, Inc., priority 2024, published 2026).

target: T1, KNCQ2/3 (Kv7.2/7.3) (Homo sapiens, UniProt O43525+O43526); assay: Kv7.2/7.3 (KNCQ2/3) activation assay, QPatch single concentration screen; assay type: cell-based; conditions: increase in current over baseline, HEK293 cells with overexpressed Kv7.2/3, compound 1 μM, steady-state current at +40 mV
T1 construct: host or cells: HEK293
Method: The ability of compounds to potentiate K-currents in HEK293 cells with overexpressed KNCQ2/3 (Kv7.2/7.3) was assessed using patch clamp on the QPatch automated screening platform.
Cell Line: The HEK293 cell line with overexpressed Kv7.2/7.3 was obtained from ICE Bioscience Inc. These HEK cells have been engineered to overexpress the Kv7.2/3 ion channels.
Cell Culture: Cells were maintained in the media containing DMEM (Corning, cat. #10-013-CV), 10% FBS (Gibco, cat. #10099141C), 800 μg/mL G418 (GPC, cat. #AK108) and 200 μg/mL hygromycin B (Solarbio, cat. #H8080). The cells were incubated at 37° C. in a humidified incubator under 5% carbon dioxide. Cells were grown in 6 cm dishes to ˜80% confluency. Currents were recorded 24 hours after channel induction.
Compound Plates: Test compounds were prepared by performing serial dilutions in DMSO (Sigma cat #D4540). Final dilutions were made in external recording solution with a final DMSO concentration of 0.1% DMSO. For single concentration screens each plate had 10 μM retigabine (Selleck Chemicals, cat. #S4733) as a positive control.
Electrophysiology: External solution contained 140 mM NaCl (Sigma cat. #S5886), 3.5 mM KCl (Sigma cat. #P5405), 1 mM MgCl2·6H2O (Sigma cat. #M2393), 2 mM CaCl2·2H2O (Sigma cat. #C7902), 10 mM D-Glucose (Sigma cat. #G8270), 10 mM HEPES (Santa Cruz cat. #SC-29097A), 1.25 mM NaH2PO4·2H2O, pH was adjusted to 7.4 with NaOH. Internal solution contained 125 mM K-Aspartic (Sigma cat. #G4500), 20 mM KCl, 10 mM EGTA (Sigma cat. #E3889), 1 mM MgCl2·6H2O, 5 mM Mg-ATP (Sigma cat. #A9187), 5 mM HEPES, pH was adjusted to 7.2 with KOH.
On the day of the experiment cells are washed with the external solution and harvested with 0.25% Trypsin EDTA (Gibco cat. #25200-072). Cells were then centrifuged at 1000 rpm/min for 5 minutes and resuspended in the external solution at ˜2.5×10^6 cells/mL. The cells were stirred with an equilibrium sharker for 20 minutes at room temperature before experiments started.
Potassium channel activity was measured on the QPatch 48X (Sophion Bioscience) using QPlates with 48-wells plate. The KCNQ current was recorded when the voltage was held at −80 mV for 3s, then stepped to −30 mV for 500 ms and back to […]. The process was repeated with an increment of 10 mV between −80 mV and +40 mV. Each cell was taken as an independent experiment and only one compound was tested per well.
Single Concentration Screen: Baseline conditions were obtained by recording 5 sweeps in the external solution only, this was repeated for three applications of the external solution. The effect of test compounds on elicited current was then assessed by recording 5 sweeps in the presence of a 1 μM compound solution. The steady-state current at the end of the 2 s pulse to +40 mV was measured to determine the fold increase from baseline.

Row | activity at 1 µM [%] | SMILES
1 | ≥ 300 | CC(C)(C)CC(=O)Nc1nn2c(c1C1CCC1)CC(C(F)(F)F)CC2 (stereo not drawn) [Compound 20]
2 | ≥ 300 | O=C(CC1CC(F)(F)C1)Nc1nn2c(c1-c1ccc(F)cc1)CC(C(F)(F)F)CC2 (stereo not drawn) [Compound 32]
3 | ≥ 300 | O=C(CC12CC(C1)C2)Nc1nn2c(c1-c1ccc(F)cc1)CC(C(F)(F)F)CC2 (stereo not drawn) [Compound 33]
4 | 200 to 300 | O=C(CCC(F)(F)F)Nc1nn2c(c1-c1ccc(F)cc1)CC(C(F)(F)F)CC2 (stereo not drawn) [Compound 34]
5 | ≥ 300 | CC1(CC(=O)Nc2nn3c(c2-c2ccc(F)cc2)CC(C(F)(F)F)CC3)CC1 (stereo not drawn) [Compound 35]
6 | ≥ 300 | CC(C)(F)CC(=O)Nc1nn2c(c1-c1ccc(F)cc1)CC(C(F)(F)F)CC2 (stereo not drawn) [Compound 36]
7 | 100 to 200 | O=C(CC1CSC1)Nc1nn2c(c1-c1ccc(F)cc1)CC(C(F)(F)F)CC2 (stereo not drawn) [Compound 37]
8 | 200 to 300 | CC(C)(C)CC(=O)Nc1nn2c(c1-c1ccc(F)cc1)CN(C1CC1)CC2 [Compound 43]
9 | 100 to 200 | C=CCN1CCn2nc(NC(=O)CC(C)(C)C)c(-c3ccc(F)cc3)c2C1 [Compound 44]
10 | 100 to 200 | CC(C)(CC(=O)Nc1nn2c(c1-c1ccc(F)cc1)CN(C1CC1)CC2)C(F)(F)F [Compound 47]
11 | 100 to 200 | CC(C)(C)CC(=O)Nc1nc2n(c1C1CCCCC1)CCCC2 [Compound 53]
12 | 200 to 300 | CC(C)(C)CC(=O)Nc1nc2n(c1-c1ccc(OC(F)(F)F)cc1)CCCC2 [Compound 54]
13 | ≥ 300 | CC(C)(C)CC(=O)Nc1nn2c(c1-c1ccc(F)cc1)CC1(CC2)CC(F)(F)C1 [Compound 55]
14 | 100 to 200 | CC(C)(C)CC(=O)Nc1nc2ncccc2n1-c1ccc(F)cc1 [Compound 60]
15 | 100 to 200 | CCn1c(NC(=O)CC(C)(C)C(F)(F)F)nc2c1CCCC2 [Compound 64]
16 | 200 to 300 | CCn1c(NC(=O)CC(C)(C)C)nc2c1CCCC2 [Compound 65]

The next lines start with the compound.

Row | SMILES | activity at 1 µM [%]
17 | CC(C)(C)CC(=O)Nc1nc2c(n1C(C)(C)C)CCCC2 [Compound 1] | 100 to 200
18 | CC(C)(C)CC(=O)Nc1nc2c(n1C1CCC1)CCCC2 [Compound 3] | 100 to 200
19 | CC(C)(C)CC(=O)Nc1nn2c(c1-c1ccc(F)cc1)CN(C(F)(F)F)CC2 [Compound 7] | 100 to 200
20 | CC(C)(C)CC(=O)Nc1nn2c(c1C1CCC1)CCCC2 [Compound 8] | 200 to 300
21 | CC(C)(CC(=O)Nc1nn2c(c1-c1ccc(F)cc1)CC(C(F)(F)F)CC2)C(F)(F)F (stereo not drawn) [Compound 10] | ≥ 300
22 | COC1CCn2nc(NC(=O)CC(C)(C)C)c(-c3ccc(F)cc3)c2C1 (stereo not drawn) [Compound 12] | 200 to 300
23 | CC(C)(C)CC(=O)Nc1nn2c(c1C1=CCCCC1)CC(C(F)(F)F)CC2 (stereo not drawn) [Compound 14] | 200 to 300
24 | CC(C)(C)CC(=O)Nc1nn2c(c1C1CCCCC1)CC(C(F)(F)F)CC2 (stereo not drawn) [Compound 15] | ≥ 300
25 | CC(C)(C)CC(=O)Nc1nn2c(c1-c1cccnc1)CC(C(F)(F)F)CC2 (stereo not drawn) [Compound 16] | 100 to 200

system: PTZ-induced epileptic model using ICR mice; assay: PTZ-induced epilepsy model in ICR mice; assay type: in vivo; conditions: male ICR mice, 10 mg/kg oral 30 min before PTZ 100 mg/kg i.p., recorded for 30 min
Method: SPF-grade male ICR mice (22-24 g) were purchased from Human Silaike Jingda Laboratory Animal Co. Ltd., China and sent to the housing facility after veterinary inspection to adapt to the rearing environment. The mice were housed in cages for 3 days under suitable conditions (temperature at 22±1° C., humidity at 40-70%, sufficient water and food, 12 hours of daylight). On the formal test day, all mice were weighed, and those meeting the weight criteria were numbered at the base of their tails. […] Animals were orally administered compound 34 (10 mg/kg) 30 min before the i.p. injection of PTZ (100 mg/kg, Sigma, USA) for epilepsy modeling. The seizure response of the mice was evaluated based on the epilepsy grading criteria. The latency and incidence rate of each seizure grade were recorded for 30 min. After the experiment, the test animals were euthanized using carbon dioxide. The results are shown in Table 2 and FIG. 1 respectively.

Row | SMILES | Latency to Racine IV Seizure [s] | Latency to Racine VI Seizure [s]
26 | O=C(CCC(F)(F)F)Nc1nn2c(c1-c1ccc(F)cc1)CC(C(F)(F)F)CC2 (stereo not drawn) [Compound 34] | 1393 | 1658
27 | CC(C)(CC(=O)Nc1nn2c(c1-c1ccc(F)cc1)CCCC2)C(F)(F)F [Compound 38] | 784 | 1320
28 | CC(C)CS(=O)(=O)Nc1nn2ccc(Cl)cc2c1-c1ccc(F)cc1 [Compound 62] | 636 | 1409

system: formalin model using SD rats; assay: 2% formalin rat model (paw licking); assay type: in vivo; conditions: male SD rats, 10 mg/kg oral 15 min before intraplantar 2.0% formalin, paw licking monitored for 60 min
Method: SPF male SD rats (170-190 g) were purchased from Human Silaike Jingda Laboratory Animal Co. Ltd., China. The rats were housed in cages for 3 days under suitable conditions (temperature at 22±1° C., humidity at 40-70%, sufficient water and food, 12 hours of daylight). The rats with a body weight of 220-240 g were numbered for further experiments. The rats were placed in the ZH-PAN801 automated rodent behavioral tracking system (Anhui Zhenghua Biologic Apparatus Facilities) for 60 min per day for an additional 3 days.
Paw licking behavior, a correlation of spontaneous pain, was tracked using the ZH-PAN801 automated rodent behavioral tracking system that can differentiate behaviors and locomotor activity of individually housed rats. The ZH-PAN801 system consists of sensor platforms which rest on two orthogonally placed force transducers and a third fixed point attached to a base plate. Each force transducer transforms the mechanical vibrations caused by animal movement into electrical signals, which are amplified, filtered, and digitized by the ZH-PAN801 system. Characteristic movements have their own unique vibrational patterns which the ZH-PAN801 software can distinguish. The cylinder cages (75 mm (radius)×310 mm (height)) consist of two halves to sensitize detection of vibrations. Thus, the base is separate from the sides, the lid, and sits directly on the sensor platform, while the sides and the lid hang from supports on the base plate.
Rats were equipped with the force transducer 15 min before the dosing. Animals were orally administered compound 21 (10 mg/kg) 15 min before the formalin injection. Rats were administered an intraplantar injection of formalin (50 μL, 2.0%, Sigma, USA) into the dorsal surface of the hindpaw attached with the force transducer to induce acute pain and placed in the automated rodent behavioral tracking system. Paw licking behavior was monitored for 60 min using the ZH-PAN801 behavior tracking system. The duration of paw licking behavior (in minutes) was collected from two distinctive phases, the early nociceptive phase occurring 0-10 min after formalin injection and the late phase thought to be associated with central sensitization, which peaks 11-60 min after formalin injection. Treatment effects were compared to vehicles by an unpaired t-test and one-way ANOVA using Graph Pad 9.0. The results are shown in Table 3 and FIG. 2 respectively.

Row | SMILES | % MPE (10 mpk) [%]
29 | CC(C)(CC(=O)Nc1nn2c(c1-c1ccc(F)cc1)C[C@@H](C(F)(F)F)CC2)C(F)(F)F [Compound 24] | 97
30 | O=C(CCC(F)(F)F)Nc1nn2c(c1-c1ccc(F)cc1)CC(C(F)(F)F)CC2 (stereo not drawn) [Compound 34] | 65
31 | CC(C)(CC(=O)Nc1nn2c(c1-c1ccc(F)cc1)CCCC2)C(F)(F)F [Compound 38] | 87
32 | CC(C)(C)n1c(NC(=O)CC(C)(C)C(F)(F)F)nc2cc3c(cc21)CNC3 [Compound 58] | 89
33 | CC(C)CS(=O)(=O)Nc1nn2ccc(Cl)cc2c1-c1ccc(F)cc1 [Compound 62] | 89
